Test results published in US20050267156A1, “Broadspectrum 2-amino-benzothiazole sulfonamide hiv protease inhibitors” (Tibotec Pharmaceuticals Ltd., priority 2002, published 2005).
Read-outs that look alike come from different tables or passages of the source.

Columns and labels:
HIV-1 strain LAI = assay: Cellular anti-HIV assay (MT4/MTT), wild type; assay type: cell-based; conditions: Human immunodeficiency virus 1; wild type HIV-1 strain LAI, MT4 cells; read-out: WT (pEC50) (converted)
mutant HIV strain A = assay: microbe, parasite or virus in culture; assay type: cell-based; conditions: for EC50: Human immunodeficiency virus 1, MT4, read-out: pEC50 Strain A, mutant HIV strain A, MT4 cells (converted)
mutant HIV strain B = assay: microbe, parasite or virus in culture; assay type: cell-based
mutant HIV strain C = assay: microbe, parasite or virus in culture; assay type: cell-based; conditions: for EC50: Human immunodeficiency virus 1, MT4, read-out: pEC50 Strain C, mutant HIV strain C, MT4 cells (converted)
mutant HIV strain D = assay: microbe, parasite or virus in culture; assay type: cell-based; conditions: for EC50: Human immunodeficiency virus 1, MT4, read-out: pEC50 Strain D, mutant HIV strain D, MT4 cells (converted)
mutant HIV strain E = assay: microbe, parasite or virus in culture; assay type: cell-based; conditions: for EC50: Human immunodeficiency virus 1, MT4, read-out: pEC50 Strain E, mutant HIV strain E, MT4 cells (converted)
[1] = Toxicity on mock-infected cells (MTT); assay type: cell-based; conditions: human
[2] = tested on: mutant HIV protease viruses; assay: Panel of more than 20 mutant proteases; assay type: cell-based
mutant HIV strain F = assay: microbe, parasite or virus in culture; assay type: cell-based; conditions: Human immunodeficiency virus 1, MT4, read-out: pEC50 Strain F, mutant HIV strain F, MT4 cells (converted)
Pharmacokinetics in rats = assay type: in vivo, Whistar rats; conditions: rat
Description: (§1) The pharmacokinetic properties of some compounds of formula (I) were tested on rats and dogs. The compounds were evaluated in Whistar rats, source Iffa Credo, weighing approximately 350 g. Before dosing the animals were fasted overnight (approximately 12 h fasting period). The compounds were dissolved in DMSO or PEG 400. The results represented in the table concern the results from the oral or intra-peritoneal dosing of the compounds. Blood was sampled at 30 min, 1 h, 2 h, 3 h, no pre-dose sample was taken. The amount of the compound in the biological sample was determined using LC-MS. In the table below “or” means oral dosing, “ip” means intraperitoneal dosing, “mpk” means mg per kilogram.

Pharmacokinetics in dogs = assay type: in vivo; conditions: dog, or
Description: as §1

[3] = FR=EC50 (mutant strain)/EC50 (HIV-1 strain LAI)

Which EC50 (HIV-1 strain LAI) does the source give for `CC(C)CN(C[C@@H](O)[C@H](Cc1ccccc1)NC(=O)OC1COC2OCCC12)S(=O)(=O)c1ccc2nc(N)sc2c1` (stereo partly drawn) [Compound 1, {(1S,2R)-3-[(2-amino-benzothiazole-6-sulfonyl)-isobutyl-amino]-1-benzyl-2-hydroxypropyl}-carbamic acid hexahydro-furo[2,3-b]furan-3-yl ester] here?
Its EC50 is 5.5 nM.

What about the “fold resistance Strain A” value (mutant HIV strain A; [3]) of the same compound?
The value was 0.5.

And the EC50 (mutant HIV strain A)?
The EC50 was 2.95 nM.

What about the “fold resistance Strain B” value (mutant HIV strain B; [3]) of the same compound?
The value was 0.7.

What about the EC50 (mutant HIV strain B; Human immunodeficiency virus 1, MT4, read-out: pEC50 Strain B, mutant HIV strain B, MT4 cells (converted)) of the same compound?
The EC50 was 3.63 nM.

And the “fold resistance Strain C” value (mutant HIV strain C; [3])?
The value was 0.8.

What about the EC50 (mutant HIV strain C) of the same compound?
The EC50 was 4.17 nM.

And the “fold resistance Strain D” value (mutant HIV strain D; [3])?
Its value is 0.4.

What about the EC50 (mutant HIV strain D) of the same compound?
Its EC50 is 2.24 nM.

And the “fold resistance Strain E” value (mutant HIV strain E; [3])?
Its value is 0.6.

What about the EC50 (mutant HIV strain E) of the same compound?
The EC50 was 3.09 nM.

And the CC50 at 5 days [1]?
The CC50 at 5 days was 69200 nM.

What about the IC50 ([2]; Human immunodeficiency virus 1, read-out: pIC50 for the most resistant mutant (converted)) of the same compound?
The IC50 was 7.59 nM.

And the IC50 ([2]; Human immunodeficiency virus 1, read-out: pIC50 for the most sensitive mutant (converted))?
The IC50 was 0.741 nM.

With `CNc1nc2ccc(S(=O)(=O)N(CC(C)C)C[C@@H](O)[C@H](Cc3ccccc3)NC(=O)OCc3cncs3)cc2s1` [Compound 18, {(1S,2R)-1-benzyl-2-hydroxy-3-[isobutyl-(2-methylamino-benzothiazole-6-sulfonyl)-amino]-propyl}-carbamic acid thiazol-5-ylmethyl ester] as the compound, how does the EC50 (HIV-1 strain LAI) read?
Its EC50 is 1.91 nM.

And the EC50 (mutant HIV strain A)?
Its EC50 is 30.9 nM.

What about the “pEC50 Strain B” value (mutant HIV strain B; mutant HIV strain B, MT4 cells) of the same compound?
The value was 8.21.

What about the EC50 (mutant HIV strain C) of the same compound?
Its EC50 is 7.41 nM.

And the EC50 (mutant HIV strain D)?
The EC50 was 21.4 nM.

And the EC50 (mutant HIV strain E)?
Its EC50 is 9.12 nM.

And the EC50 (mutant HIV strain F)?
The EC50 was 148 nM.

And the CC50 at 5 days [1]?
The CC50 at 5 days was 85100 nM.

And the Cmax (Pharmacokinetics in rats; Whistar, blood, ip, 10 mpk, ip, DMSO, results normalized to 10 mpk, read-out: Cmax)?
Its Cmax is 1140 ng/mL.

What about the Cmax (Pharmacokinetics in rats; Whistar, blood, po, 10 mpk, or, DMSO, results normalized to 10 mpk, read-out: Cmax) of the same compound?
Its Cmax is 396 ng/mL.

What about the Cmax (Pharmacokinetics in rats; Whistar, blood, po, 10 mpk, or, PEG400, results normalized to 10 mpk, read-out: Cmax) of the same compound?
The Cmax was 668 ng/mL.

And the Cmax (Pharmacokinetics in dogs; blood, po, 10 mpk, DMSO, results normalized to 10 mpk, read-out: Cmax)?
Its Cmax is 15 ng/mL.

What about the Cmax (Pharmacokinetics in dogs; blood, po, 10 mpk, PEG400, results normalized to 10 mpk, read-out: Cmax) of the same compound?
The Cmax was 42 ng/mL.

Which results are given for `CNc1nc2ccc(S(=O)(=O)N(CC(C)C)C[C@@H](O)[C@H](Cc3ccccc3)NC(=O)O[C@H]3CCOC3)cc2s1` [Compound 21, {(1S,2R)-1-benzyl-2-hydroxy-3-[isobutyl-(2-methylamino-benzothiazole-6-sulfonyl)-amino]-propyl}-carbamic acid(S)(tetrahydro-furan-3-yl)ester]?
Cmax (Pharmacokinetics in rats; ip, DMSO, results normalized to 10 mpk): 1763 ng/mL; Cmax (Pharmacokinetics in rats; or, DMSO, results normalized to 10 mpk): 1139 ng/mL; Cmax (Pharmacokinetics in rats; or, PEG400, results normalized to 10 mpk): 1315 ng/mL; Cmax (Pharmacokinetics in dogs; PEG400 - 2 animals, results normalized to 10 mpk): 61 ng/mL; Cmax (Pharmacokinetics in dogs; PEG400 - 4 animals, results normalized to 10 mpk): 184 ng/mL
